Target: human MAT2A enzyme (Homo sapiens (Human), UniProt P31153)
Assay: In vitro enzymatic inhibition activity assay on MAT2A (PiColorLock phosphate detection)
Format: biochemical
Conditions: purified human MAT2A 10 nM, ATP 50 μM, L-methionine 100 μM, 6 h at 23° C.; read-out: MAT2A inhibitory activity IC50
Description: Enzymatic activity assays of compounds of this patent against MAT2A (to detect half inhibitory concentration IC50 values of the compounds) were performed using the phosphate detection kit PiColorLockTM (ab270004, purchased from Abcam). This method utilized the principle that purified human MAT2A enzyme catalyzes the formation of S-adenosylmethionine (SAM) from L-methionine and ATP to release free phosphate, and used the spectrophotometric method to quantify phosphate, so as to determine the enzymatic activity of MAT2A. Compounds were diluted in a 10-fold gradient starting at 1 mM with 100% DMSO (for a total of 8 concentrations) and 2 μL of each concentration was added to 48 μL of reaction buffer (50 mM Tris-HCl PH 7.5, 50 mM KCl, 10 mM MgCl2, 0.01% Brij-35, 0.01% BSA, 1 mM DTT) and mixed well. The final diluted compound was prepared, and 5 μL of MAT2A enzyme (final concentration of 10 nM), 5 μL of ATP (final concentration of 50 μM), and 5 μL of L-methionine (final concentration of 100 μM) were added to each well of a 384-well plate (#3701, purchased from CORNING). After the 384-well plate was placed in the incubator at 23° C. for 6 h, 5 μL of PiColorLock reagent diluted Accelerator (dilution ratio 1:100) was added to each well, and the reaction was stopped by incubating in the incubator at 23° C. for 5 min. 2 μL of Stabiliser was added, the absorbance was read at 630 nm on BMG CLARIOstar, and the IC50 value of the compound was calculated by using GraphPad Prism software.
Under the conditions of this experiment, the inhibition of MAT2A by test compounds can be expressed as an IC50 value for the inhibition of the level of phosphate production during the enzymatic reaction.

Chain of human MAT2A enzyme (P31153 whole entry): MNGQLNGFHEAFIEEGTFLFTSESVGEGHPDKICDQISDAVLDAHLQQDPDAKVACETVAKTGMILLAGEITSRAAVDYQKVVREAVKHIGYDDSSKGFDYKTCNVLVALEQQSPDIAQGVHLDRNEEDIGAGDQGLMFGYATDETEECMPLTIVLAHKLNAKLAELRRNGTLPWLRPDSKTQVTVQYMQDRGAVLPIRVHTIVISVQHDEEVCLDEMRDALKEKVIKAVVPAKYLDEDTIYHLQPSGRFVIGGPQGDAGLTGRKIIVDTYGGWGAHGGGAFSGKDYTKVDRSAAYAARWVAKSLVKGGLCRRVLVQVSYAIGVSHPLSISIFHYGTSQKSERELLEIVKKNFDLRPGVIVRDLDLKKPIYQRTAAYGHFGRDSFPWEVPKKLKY

Row | Structure (SMILES) | IC50 [nM]
1 | [2H]C([2H])([2H])OC(=O)c1c(N)c2ccc(C(F)(F)F)cc2n(-c2ccc(N)cc2)c1=O [Example 412, methyl-d3 4-amino-1-(4-aminophenyl)-7-(trifluoromethyl)-2-oxo-1,2-dihydroquinoline-3-carboxylate] | 0.97
2 | COC(=O)c1c(N)c2ccc(Br)cc2n(-c2ccc(N)c3cnccc23)c1=O [Example 178, methyl 4-amino-1-(8-aminoisoquinolin-5-yl)-7-bromo-2-oxo-1,2-dihydroquinoline-3-carboxylate] | 2.59
3 | COC(=O)c1c(N)c2ccc(C3CC3)cc2n(-c2ccc([C@@H](C)O)cc2)c1=O [Example 353, methyl 4-amino-(1-(4-(1R)-1-hydroxyethyl)phenyl)-7-cyclopropyl-2-oxo-1,2-dihydroquinoline-3-carboxylate] | 1.25
4 | COC(=O)c1c(N)c2ccc(C(F)(F)F)cc2n(-c2ccc(I)cc2)c1=O [Example 125, methyl 4-amino-1-(4-iodophenyl)-2-oxo-7-(trifluoromethyl)-1,2-dihydroquinoline-3-carboxylate] | 2.67
5 | COC(=O)c1c(N)c2ccc(Cl)nc2n(-c2cccc3cnccc23)c1=O [Example 201, methyl 4-amino-7-chloro-1-(isoquinolin-5-yl)-2-oxo-1,2-dihydro-1,8-naphthyridine-3-carboxylate] | 5.38
6 | COC(=O)c1c(N)c2ccc(C(F)(F)F)nc2n(-c2cccc3c(C)nccc23)c1=O [Example 319, methyl 4-amino-1-(1-methylisoquinolin-5-yl)-2-oxo-7-(trifluoromethyl)-1,2-dihydro-1,8-naphthyridine-3-carboxylate] | 1.2
7 | COC(=O)c1c(N)c2ccc(C(F)(F)F)cc2n(-c2ccc3c(c2)OCC3)c1=O [Example 111, methyl 4-amino-1-(2,3-dihydro-1-benzofuran-6-yl)-2-oxo-7-(trifluoromethyl)-1,2-dihydroquinoline-3-carboxylate] | 4.06
8 | COC(=O)c1c(N)c2ccc(C(F)(F)F)nc2n(-c2cnc(Cl)cc2C)c1=O [Example 204, methyl 4-amino-1-(6-chloro-4-methylpyridin-3-yl)-2-oxo-7-(trifluoromethyl)-1,2-dihydro-1,8-naphthyridine-3-carboxylate] | 4.62
9 | C#Cc1ccc(-n2c(=O)c(C(=O)OC)c(N)c3ccc(C(F)(F)F)cc32)cc1 [Example 133, methyl 4-amino-1-(4-ethynylphenyl)-2-oxo-7-(trifluoromethyl)-1,2-dihydroquinoline-3-carboxylate] | 2.79
10 | COC(=O)c1c(N)c2ccc(C(F)(F)F)cc2n(-c2ccc3ccncc3c2)c1=O [Example 224, methyl 4-amino-1-(isoquinolin-7-yl)-2-oxo-7-(trifluoromethyl)-1,2-dihydroquinoline-3-carboxylate] | 2.81

Continued by falling IC50, values first:

Row | IC50 [nM] | Structure (SMILES)
11 | 3.58 | COC(=O)c1c(N)c2ccc(C(F)(F)F)cc2n(-c2ccccc2)c1=O [Example 17, methyl 4-amino-7-trifluoromethyl-2-oxo-1-phenyl-1,2-dihydroquinoline-3-carboxylate]
12 | 3.49 | COC(=O)c1c(N)c2ccc(C(F)(F)F)cc2n(-c2ccc3ocnc3c2)c1=O [Example 128, methyl 4-amino-1-(benzo(2,1-d)(1,3)oxazol-5-yl)-2-oxo-7-(trifluoromethyl)-1,2-dihydroquinoline-3-carboxylate]
13 | 2.44 | COC(=O)c1c(N)c2ccc(Br)cc2n(-c2cccc(N)c2)c1=O [Example 284, methyl 4-amino-1-(3-aminophenyl)-7-bromo-2-oxo-1,2-dihydroquinoline-3-carboxylate]
14 | 1.84 | COC(=O)c1c(N)c2ccc(Br)cc2n(-c2ccc(OC)nc2)c1=O [Example 211, methyl 4-amino-7-bromo-1-(6-methoxypyridin-3-yl)-2-oxo-1,2-dihydroquinoline-3-carboxylate]
15 | 1.72 | COC(=O)c1c(N)c2ccc(Br)nc2n(-c2cnc(N)cc2C)c1=O [Example 280, methyl 4-amino-1-(6-amino-4-methylpyridin-3-yl)-7-bromo-2-oxo-1,2-dihydro-1,8-naphthyridine-3-carboxylate]
